Experimental data: the NIST ThermoML archive (doi:10.1016/j.tca.2008.10.015)
Numbers after ± are expanded uncertainties.

What was measured:
[1] = 101.33 kPa, Liquid, conductivity meter
[2] = molar heat capacity at constant pressure; conditions: 101.33 kPa, Liquid, Small sample (50 mg) DSC

CCCCn1cc[n+](C)c1.F[B-](F)(F)F [1-butyl-3-methylimidazolium tetrafluoroborate]
Conditions | electrical conductivity, [1] [S/m] | molar heat capacity at constant pressure, [2] [J/K/mol]
303.2 K | 0.295 ± 0.016 | 368.42 ± 6.8
308.2 K | 0.364 ± 0.018 | 370.68 ± 6.8
313.2 K | 0.446 ± 0.009 | 372.94 ± 6.8
318.2 K | 0.542 ± 0.011 | 375.2 ± 6.8
323.2 K | 0.651 ± 0.013 | 377.46 ± 6.8
328.2 K | 0.783 ± 0.016 | 379.72 ± 6.8
333.2 K | 0.926 ± 0.019 | 381.98 ± 6.8
338.2 K | 1.08 ± 0.022 | 384.24 ± 6.8
343.2 K | 1.25 ± 0.025 | 386.5 ± 6.8
348.2 K | 1.67 ± 0.033 | 388.76 ± 6.8
353.2 K | 2.18 ± 0.044 | 391.02 ± 6.8
358.2 K | – | 393.28 ± 6.8

CCCCn1cc[n+](C)c1.F[P-](F)(F)(F)(F)F [1-butyl-3-methylimidazolium hexafluorophosphate]
Conditions | electrical conductivity, [1] [S/m] | molar heat capacity at constant pressure, [2] [J/K/mol]
303.2 K | 0.114 ± 0.002 | 412.06 ± 8.5
308.2 K | 0.149 ± 0.003 | 417.75 ± 11
313.2 K | 0.193 ± 0.006 | 420.59 ± 11
318.2 K | 0.245 ± 0.018 | 423.43 ± 11
323.2 K | 0.308 ± 0.006 | 423.43 ± 11
328.2 K | 0.383 ± 0.008 | 426.27 ± 11
333.2 K | 0.468 ± 0.018 | 429.12 ± 11
338.2 K | 0.556 ± 0.022 | 431.96 ± 11
343.2 K | 0.664 ± 0.018 | 434.8 ± 11
348.2 K | 0.917 ± 0.026 | 440.48 ± 11
353.2 K | 1.21 ± 0.024 | 443.32 ± 11
358.2 K | – | 443.32 ± 8.5

CCCCn1cc[n+](C)c1.O=S(=O)([O-])C(F)(F)F [1-butyl-3-methylimidazolium trifluoromethanesulfonate]
Conditions | electrical conductivity, [1] [S/m] | molar heat capacity at constant pressure, [2] [J/K/mol]
303.2 K | 0.23 ± 0.018 | 443.96 ± 8.6
308.2 K | 0.286 ± 0.02 | 443.96 ± 8.6
313.2 K | 0.358 ± 0.081 | 446.85 ± 8.6
318.2 K | 0.437 ± 0.02 | 449.73 ± 8.6
323.2 K | 0.521 ± 0.02 | 452.61 ± 12
328.2 K | 0.619 ± 0.018 | 452.61 ± 12
333.2 K | 0.724 ± 0.018 | 455.5 ± 12
338.2 K | 0.841 ± 0.02 | 458.38 ± 12
343.2 K | 0.967 ± 0.02 | 461.26 ± 12
348.2 K | 1.25 ± 0.025 | 464.14 ± 12
353.2 K | 1.57 ± 0.032 | 467.03 ± 12
358.2 K | – | 469.91 ± 12

CCCCn1cc[n+](C)c1.COS(=O)(=O)[O-] [1-butyl-3-methylimidazolium methyl sulfate]
Conditions | electrical conductivity, [1] [S/m] | molar heat capacity at constant pressure, [2] [J/K/mol]
303.2 K | 0.217 ± 0.02 | 375.47 ± 7.5
308.2 K | 0.276 ± 0.018 | 380.48 ± 7.5
313.2 K | 0.348 ± 0.022 | 382.98 ± 7.5
318.2 K | 0.43 ± 0.014 | 382.98 ± 7.5
323.2 K | 0.522 ± 0.016 | 385.49 ± 7.5
328.2 K | 0.626 ± 0.022 | 387.99 ± 7.5
333.2 K | 0.741 ± 0.016 | 390.49 ± 7.5
338.2 K | 0.867 ± 0.02 | 393 ± 7.5
343.2 K | 1.01 ± 0.022 | 393 ± 7.5
348.2 K | 1.32 ± 0.026 | 398 ± 7.5
353.2 K | 1.67 ± 0.033 | 398 ± 7.5
358.2 K | – | 400.51 ± 7.5
